Broadly, the IC50 is the concentration needed to halve the response being measured.

Read-outs that look alike come from different tables or passages of the source.

The subject of experiment [1] is PqsR (PqsR-controlled pqsA promoter, PAO1-L mCTX::PpqsA-lux). The experiment can be described thus: Bioluminescent reporter assay, PAO1-L mCTX::PpqsA-lux. Particulars: for pqs inhibitory activity in the PA bioluminescent reporter assay, in words: reporter strains; for IC50: Pseudomonas aeruginosa; for reduction in potency compared with 6f: PAO1-L; for activity relative to 6f / to each other, in words: PAO1-L reporter (6i, 6j, 6s: both reporter strains). The experiment is classed as cell-based, Pseudomonas aeruginosa. The method, then: (§1) An extensive SAR was performed on 6a to investigate the role of substitutions around various positions of the benzimidazole ring (groups R1–R3) as well as the aromatic tail (groups R4–R5) to fine-tune the potency of this series (6a–u) (Table 2). The activity of these analogues to inhibit the pqs QS system was evaluated in the PAO1-L and PA14 strains (that belong to the two major P. aeruginosa genomic lineages), both harboring a chromosomally integrated mCTX::PpqsA-lux transcriptional fusion to report for the activity of pqs system. Successful pharmacological blocking of AQ signal reception at the level of PqsR leads to a reduced transcription of the pqsA-lux genes and ultimately reduction in the luminescence readout.
(§2) Strains PA14 mCTX::PpqsA-lux and PAO1-L mCTX::PpqsA-lux were used to detect PqsR-controlled activation of the pqsA promoter, as previously described,[45] and the assay was performed according to a published method.[46] For initial screening, the compounds were tested at a concentration of 10 μM, which was prepared from a 10 mM stock, in DMSO.
In general terms: Reporter assays use an easily measured gene product as a stand-in for the process of interest.

In experiment [2] the test system is PqsR (PqsR-controlled pqsA promoter, PA14 mCTX::PpqsA-lux). The experiment is described as follows: Bioluminescent reporter assay, PA14 mCTX::PpqsA-lux. The experiment is classed as cell-based. The following applies: Pseudomonas aeruginosa. On the procedure:
as §1, §2

The test system of experiment [3] is pyocyanin production in P. aeruginosa. The experiment can be described thus: Pyocyanin quantification. The experiment is classed as cell-based, Pseudomonas aeruginosa. Particulars: PAO1-L; concentration three times the IC50; relative to DMSO. The method, then:
This assay was extended further to investigate the effect of 6f on pyocyanin production in different P. aeruginosa at 6f concentration of 200 nM (Figure 5b).
The experiment was performed following a published protocol with minor modifications. Strains were cultured into 5 mL of fresh medium overnight. […] Cells were centrifuged at 10 000 RCF for 10 min (Allegra 64R centrifuge, Beckman Coulter, High Wycombe, UK), and the supernatant was transferred to 15 mL falcon tubes with a HSW 10 mL Soft-Ject Syringe and a […] Sartorius syringe-driven filter (Fisher Brand, Loughborough, UK). Pyocyanin pigment was extracted into chloroform by mixing 7.5 mL of supernatant with 4.5 mL of chloroform. Pyocyanin was further extracted into 1.5 mL of 0.2 M HCL, which gave a pink/red solution, and the absorbance was measured at 520 nm.[47]

Setting [4] is: PA14, read-out: IC50 (μM) PA14 mCTX::PpqsA-lux.
Where [5] appears, read: PAO1, read-out: IC50 (μM) PAO1-L mCTX::PpqsA-lux.

“2-(4-(3-((5,6-Dichloro-1-methyl-1H-benzo[d]imidazol-2-yl) amino)-2-hydroxypropoxy) phenyl) Acetonitrile [Compound 6c]”: the “pqs inhibitory activity in the PA bioluminescent reporter assay, in words” value (“pqs inhibitory activity” for short) in experiment [1] was “abolished the activity”.

On to `CC(C)n1c(NCC(O)COc2ccc(CC#N)c(F)c2)nc2ccc(Cl)cc21` (stereo not drawn) [Compound 6o, 2-(4-(3-((6-Chloro-1-isopropyl-1H-benzo[d]imidazol-2-yl)amino)-2-hydroxypropoxy)-2-fluorophenyl) Acetonitrile], for which the IC50 in experiment [2] (setting [4]) stood at 0.09 ± 0.01 µM; in experiment [1] (setting [5]), 0.06 ± 0.03 µM.

`CC(C)(C)Cn1c(NCC(O)COc2ccc(CC#N)cc2)nc2ccc(Cl)cc21` (stereo not drawn) [Compound 6h, 2-(4-(3-((6-Chloro-1-neopentyl-1H-benzo[d]imidazol-2-yl)amino)-2-hydroxypropoxy)phenyl) Acetonitrile]: the IC50 in experiment [2] (setting [4]) was 0.25 µM; in experiment [1] (setting [5]), 0.38 µM. Further, the “reduction in potency compared with 6f” value in experiment [1] was approximately 6 fold.

`N#CCc1ccc(OCC(O)CNc2nc3ccc(Cl)cc3s2)cc1` (stereo not drawn) [Compound 8]: the “pqs inhibitory activity” value in experiment [1] is given as “abolished pqs inhibitory activity”.

With `COCCn1c(NCC(O)COc2ccc(CC#N)cc2)nc2ccc(Cl)cc21` (stereo not drawn) [Compound 6t, 2-(4-(3-((6-Chloro-1-(2-methoxyethyl)-1H-benzo[d]imidazol-2-yl)amino)-2-hydroxypropoxy)phenyl) Acetonitrile], the IC50 in experiment [2] (setting [4]) is 0.2 ± 0.05 µM; in experiment [1] (setting [5]), 0.18 ± 0.04 µM. For the same compound, the “reduction in potency compared with 6f” value in experiment [1] was determined as 2 fold.

Take `N#CCc1ccc(OCC(O)CNc2nc3ccc(Cl)cc3n2CCO)cc1` (stereo not drawn) [Compound 6u, 2-(4-(3-((6-Chloro-1-(2-hydroxyethyl)-1H-benzo[d]imidazol-2-yl)amino)-2-hydroxypropoxy)phenyl) Acetonitrile]: the values for the IC50 in experiment [2] (setting [4]) and in experiment [1] (setting [5]) were 0.1 ± 0.02 µM and 0.18 ± 0.05 µM, respectively. Moreover, the “reduction in potency compared with 6f” value in experiment [1] came out at 2 fold.

On to `CC(C)n1c(NCC(O)COc2ccc(CC#N)cc2)nc2ccccc21` (stereo not drawn) [Compound 6p, 2-(4-(2-Hydroxy-3-((1-isopropyl-1H-benzo[d]imidazol-2-yl)amino)propoxy)phenyl) Acetonitrile], for which the IC50 in experiment [2] (setting [4]) was 1.03 µM; in experiment [1] (setting [5]) it was 0.77 µM.

As for `Cn1c(NCC(O)COc2ccc(CC#N)cc2)nc2ccc(Cl)cc21` (stereo not drawn) [Compound 6a, 2-(4-(3-((6-Chloro-1-methyl-1H-benzo[d]imidazol-2-yl)amino)-2-hydroxypropoxy)phenyl) Acetonitrile], the IC50 was 0.2 ± 0.02 µM in experiment [2] (PA14, read-out: IC50 (μM) PA14 PpqsA-lux) and 0.21 ± 0.04 µM in experiment [1] (PAO1, read-out: IC50 (μM) PAO1-L PpqsA-lux). Besides, the “enhancement of activity compared to 1” value in experiment [1] (PAO1-L laboratory strain) is reported as 15 fold.

As for `CC(C)(C)n1c(NCC(O)COc2ccc(CC#N)cc2)nc2ccc(Cl)cc21` (stereo not drawn) [Compound 6g, 2-(4-(3-((1-(tert-Butyl)-6-chloro-1H-benzo[d]imidazol-2-yl)amino)-2-hydroxypropoxy)phenyl) Acetonitrile], the “inhibition of pyocyanin production” value in experiment [3] is approximately 80%. In addition, the results for the IC50 in experiment [2] (setting [4]) and in experiment [1] (setting [5]) were 0.23 ± 0.01 µM and 0.22 ± 0.01 µM, respectively.

On to `N#CCc1ccc(OCC(O)CNc2nc3ccc(Cl)cc3n2C2CCCCC2)cc1` (stereo not drawn) [Compound 6l, 2-(4-(3-((6-Chloro-1-cyclohexyl-1H-benzo[d]imidazol-2-yl)amino)-2-hydroxypropoxy)phenyl) Acetonitrile], for which the IC50 came out at 1.4 ± 0.1 µM in experiment [2] (setting [4]) and 1.7 ± 0.5 µM in experiment [1] (setting [5]). For the same compound, the “reduction in potency compared with 6f” value in experiment [1] amounted to 25 fold.

For the compound `N#CCc1ccc(OCC(O)CNc2nc3ccc(Cl)cc3n2CCOCc2ccccc2)cc1` (stereo not drawn) [Compound 6m, 2-(4-(3-((1-(2-(Benzyloxy)ethyl)-6-chloro-1H-benzo[d]imidazol-2-yl)amino)-2-hydroxypropoxy)phenyl) Acetonitrile], the “reduction in potency compared with 6f” value in experiment [1] is 14 fold. Further, in experiment [1] (setting [5]), the IC50 came to 1.06 µM.

Take `CN1CCC(n2c(NCC(O)COc3ccc(CC#N)cc3)nc3ccc(Cl)cc32)CC1` (stereo not drawn) [Compound 6r, 2-(4-(3-((6-Chloro-1-(1-methylpiperidin-4-yl)-1H-benzo[d]imidazol-2-yl)amino)-2-hydroxypropoxy)phenyl) Acetonitrile]: in experiment [1], the “pqs inhibitory activity” value is reported as “not active”.

Turning to `CC(C)n1c(NC[C@H](O)COc2ccc(CC#N)cc2)nc2ccc(Cl)cc21` [Compound 6v], in experiment [1], the “activity relative to 6f / to each other, in words” value is “comparable activity to the racemic compound 6f”.

Regarding “2-(4-(3-((5-Chloro-1-methyl-1H-benzo[d]imidazol-2-yl)amino)-2-hydroxypropoxy)phenyl) Acetonitrile [Compound 6b]”, in experiment [1], the “pqs inhibitory activity” value is “abolished the activity”.

As to `CN(C)CCn1c(NCC(O)COc2ccc(CC#N)cc2)nc2ccc(Cl)cc21` (stereo not drawn) [Compound 6q, 2-(4-(3-((6-Chloro-1-(2-(dimethylamino)ethyl)-1H-benzo[d]imidazol-2-yl)amino)-2-hydroxypropoxy)phenyl) Acetonitrile], the “pqs inhibitory activity” value in experiment [1] is on record as “obliterated the biological activity”.

For the compound `N#CCc1ccc(OCC(O)CNc2nc3ccc(Cl)cc3n2C2CC2)cc1` (stereo not drawn) [Compound 6i, 2-(4-(3-((6-Chloro-1-cyclopropyl-1H-benzo[d]imidazol-2-yl)amino)-2-hydroxypropoxy)phenyl) Acetonitrile], the figures for the IC50 in experiment [2] (setting [4]) and in experiment [1] (setting [5]) were 0.09 ± 0.02 µM and 0.07 ± 0.03 µM, respectively. For the same compound, in experiment [1], the “activity relative to 6f / to each other, in words” value is recorded as “comparable potencies to 6f”.

`Cn1c(SCC(O)COc2ccc(CC#N)cc2)nc2ccc(Cl)cc21` (stereo not drawn) [Compound 11]: in experiment [1], the “pqs inhibitory activity” value was “abolished pqs inhibitory activity”.

In the case of `N#CCc1ccc(OCC(O)CNc2nc3ccc(Cl)cc3n2C2CCC2)cc1` (stereo not drawn) [Compound 6j, 2-(4-(3-((6-Chloro-1-cyclobutyl-1H-benzo[d]imidazol-2-yl)amino)-2-hydroxypropoxy)phenyl) Acetonitrile], the IC50 was 0.31 ± 0.05 µM in experiment [2] (setting [4]) and 0.16 ± 0.01 µM in experiment [1] (setting [5]). In addition, the “activity relative to 6f / to each other, in words” value in experiment [1] is reported as “comparable potencies to 6f”.

As for `N#CCc1ccc(OCC(O)CNc2nc3ccc(Cl)cc3o2)cc1` (stereo not drawn) [Compound 7], the “pqs inhibitory activity” value in experiment [1] was “abolished pqs inhibitory activity”.

As for `CC(C)n1c(NC[C@@H](O)COc2ccc(CC#N)cc2)nc2ccc(Cl)cc21` [Compound 6w], the “activity relative to 6f / to each other, in words” value in experiment [1] is reported as “comparable activity to the racemic compound 6f”.

Consider `N#CCc1ccc(OCC(O)CNc2nc3ccc(Cl)cc3n2C2COC2)cc1` (stereo not drawn) [Compound 6s, 2-(4-(3-((6-Chloro-1-(oxetan-3-yl)-1H-benzo[d]imidazol-2-yl)amino)-2-hydroxypropoxy)phenyl) Acetonitrile], for which the IC50 is 0.21 ± 0.03 µM in experiment [2] (setting [4]) and 0.24 ± 0.02 µM in experiment [1] (setting [5]). For the same compound, the “activity relative to 6f / to each other, in words” value in experiment [1] is reported as “comparable potencies to 6f”.

For the compound `N#CCc1ccc(OCC(O)CNc2nc3ccc(Cl)cc3n2C2CCCC2)cc1` (stereo not drawn) [Compound 6k, 2-(4-(3-((6-Chloro-1-cyclopentyl-1H-benzo[d]imidazol-2-yl)amino)-2-hydroxypropoxy)phenyl) Acetonitrile], the IC50 was determined as 0.47 ± 0.1 µM in experiment [2] (setting [4]) and 0.44 ± 0.1 µM in experiment [1] (setting [5]). Also, the “reduction in potency compared with 6f” value in experiment [1] is on record as approximately 6 fold.
